US20260049289A1, “ARRAY PLATFORM FOR HIGH-THROUGHPUT ORGANOID PROFILING” (CZ Biohub SF, LLC, priority 2022, published 2026)

Test system: patient-derived pancreatic ductal adenocarcinoma (PDAC) organoids
Assay: Drug testing of patient-derived PDAC organoids treated with gemcitabine in the microwell platform
Assay type: cell-based, human
Conditions: PDAC organoids derived from the same parental cells, imaging (FIG. 6)
Excerpt: FIG. 6: Representative drug evaluation of patient-derived pancreatic ductal adenocarcinoma organoids treated with gemcitabine. Upper panel, organoids sensitive to gemcitabine; lower panel, organoids resistance to gemcitabine. Organoids are a desirable choice for drug screening studies because they retain 3D cellular architecture and therefore recapitulate physiological conditions to a higher degree than traditional cell lines. […] Organoids sensitive to gemcitabine (FIG. 6, top panel) were growth-stunted and/or dissociated compared to resistant organoids (FIG. 6, bottom panel). Whole organoids that display resistance to a drug, can be retrieved and further evaluated, e.g., for genomic changes and/or changes in RNA expression profiles, to evaluate mechanisms of drug resistance, for example, innate versus acquired resistance.

## Nc1ccn([C@@H]2O[C@H](CO)[C@@H](O)C2(F)F)c(=O)n1 [gemcitabine]
  observed drug response of single organoids (growth, dissociation): heterogeneity in observed drug response
